Source: patent publication US4455290A, “Inhibition of fibrin polymerization by a peptide isolated from fibrin Fragment D1” (Research Corporation, priority 1981, dated 1984)
Peptide text beside a SMILES is read from it.

Target: T1, batroxobin fibrin monomer (Homo sapiens, UniProt P02671+P02675+P02679)
T1 construct: fibrin monomer which was formed by batroxobin (lacking fibrinopeptide A); made in house; host or cells: not recombinant: made from fibrinogen by treatment with batroxobin (Bothrops atrox venom enzyme)
T1 sequence (P02671 36-629 isoform P02671-2): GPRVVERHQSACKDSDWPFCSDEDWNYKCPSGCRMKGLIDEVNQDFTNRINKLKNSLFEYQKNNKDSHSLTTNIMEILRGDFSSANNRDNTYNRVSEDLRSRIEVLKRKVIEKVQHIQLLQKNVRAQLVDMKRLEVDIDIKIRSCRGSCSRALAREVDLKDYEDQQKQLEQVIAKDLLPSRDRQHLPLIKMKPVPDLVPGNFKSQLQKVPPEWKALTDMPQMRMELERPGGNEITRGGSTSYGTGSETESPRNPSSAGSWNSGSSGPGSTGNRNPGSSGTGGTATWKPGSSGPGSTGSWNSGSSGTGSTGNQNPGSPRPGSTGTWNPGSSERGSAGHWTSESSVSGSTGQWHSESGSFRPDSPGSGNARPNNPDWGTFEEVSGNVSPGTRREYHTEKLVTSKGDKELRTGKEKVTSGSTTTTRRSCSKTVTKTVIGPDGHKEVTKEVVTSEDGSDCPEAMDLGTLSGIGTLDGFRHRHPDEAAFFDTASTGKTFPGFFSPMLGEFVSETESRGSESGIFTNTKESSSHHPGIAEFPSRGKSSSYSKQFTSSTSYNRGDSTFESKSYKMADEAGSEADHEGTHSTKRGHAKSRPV
T1 sequence (P02675 31-491): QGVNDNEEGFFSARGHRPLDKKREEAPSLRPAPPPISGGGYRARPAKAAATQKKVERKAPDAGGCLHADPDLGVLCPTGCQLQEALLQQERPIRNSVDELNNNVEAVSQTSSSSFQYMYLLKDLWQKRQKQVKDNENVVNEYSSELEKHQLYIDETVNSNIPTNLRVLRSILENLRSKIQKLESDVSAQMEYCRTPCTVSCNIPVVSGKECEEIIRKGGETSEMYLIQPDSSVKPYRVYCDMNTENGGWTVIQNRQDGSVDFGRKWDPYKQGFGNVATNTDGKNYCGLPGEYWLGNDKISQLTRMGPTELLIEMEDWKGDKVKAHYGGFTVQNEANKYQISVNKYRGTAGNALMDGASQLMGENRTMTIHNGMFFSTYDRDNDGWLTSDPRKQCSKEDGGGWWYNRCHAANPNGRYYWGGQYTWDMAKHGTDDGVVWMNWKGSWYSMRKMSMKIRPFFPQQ
T1 sequence (P02679 27-437 isoform P02679-2): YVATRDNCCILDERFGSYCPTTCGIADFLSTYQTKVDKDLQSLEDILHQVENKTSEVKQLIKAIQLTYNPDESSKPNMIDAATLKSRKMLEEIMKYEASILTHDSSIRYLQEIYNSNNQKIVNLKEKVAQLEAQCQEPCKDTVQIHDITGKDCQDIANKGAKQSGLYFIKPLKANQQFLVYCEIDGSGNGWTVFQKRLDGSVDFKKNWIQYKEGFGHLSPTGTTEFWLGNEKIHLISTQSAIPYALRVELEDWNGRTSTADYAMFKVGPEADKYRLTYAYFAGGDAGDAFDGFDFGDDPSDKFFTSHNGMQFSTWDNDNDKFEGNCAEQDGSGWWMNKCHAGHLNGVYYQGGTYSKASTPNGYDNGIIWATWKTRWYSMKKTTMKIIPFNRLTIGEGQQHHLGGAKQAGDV
Assay: Inhibition of fibrin monomer polymerization (absorbance at 350 nm), batroxobin fibrin monomer
Type: biochemical
Protocol: Fibrin monomer was prepared according to the method of Belitser et al, Biochem. Biophys. Acta 154, 367-375 (1968) using either thrombin or batroxobin (an enzyme from the venom of Bothrops atrox). The polymerization of fibrin monomer which was formed by batroxobin (lacking fibrinopeptide A) or by thrombin (lacking fibrinopeptides A and B) was inhibited by D1 Peptide. Polymerization was measured spectrophotometrically at 350 nm as has been described in Budzynski, Biochem. Biophys. Acta 584, 284-287 (1979). […] At zero time the recorder was started and 0.01 ml of fibrin monomer (1.5 mg/ml in 0.02M acetic acid) was added, the cells were inverted, and the increase in absorbance at 350 nm was measured continuously for 15 min or until plateau levels were reached. For batroxobin fibrin monomer 0.15 ml of buffer or buffer containing D1 Peptide was mixed with 0.05 ml of batroxobin fibrin monomer (1.5 mg/ml in 0.02M acetic acid). The initial rate of polymerization was calculated from the slope of the steepest part of the curve and expressed as the increase in absorbance per min (A350 ·min^-1).
In order to assess the effect of D1 Peptide on fibrin monomer polymerization over a wide range of concentrations, batroxobin fibrin monomer concentration was varied from 3.3×10^-8 M to 1.75×10^-7 M and the maximum rate of polymerization measured in the absence or presence of 2.5×10^-7 M D1 Peptide (FIG. 5). […]

SMILES: CC[C@H](C)[C@H](NC(=O)[C@H](CCCCN)NC(=O)[C@H](CCSC)NC(=O)[C@@H](NC(=O)[C@@H](NC(=O)[C@H](CCCCN)NC(=O)[C@H](CCCCN)NC(=O)[C@H](CCSC)NC(=O)[C@H](CO)NC(=O)[C@H](Cc1ccc(O)cc1)NC(=O)[C@H](Cc1c[nH]c2ccccc12)NC(=O)[C@H](CCCNC(=N)N)NC(=O)[C@@H](N)[C@@H](C)O)[C@@H](C)O)[C@@H](C)O)C(=O)N[C@H](C(=O)N1CCC[C@H]1C(=O)N[C@@H](Cc1ccccc1)C(=O)N[C@@H](CC(N)=O)C(=O)N[C@@H](CCCNC(=N)N)C(=O)N[C@@H](CC(C)C)C(=O)N[C@H](C(=O)N[C@H](C(=O)NCC(=O)N[C@@H](CCC(=O)O)C(=O)NCC(=O)N[C@@H](CCC(N)=O)C(=O)N[C@@H](CCC(N)=O)C(=O)N[C@@H](Cc1c[nH]cn1)C(=O)N[C@@H](Cc1c[nH]cn1)C(=O)N[C@@H](CC(C)C)C(=O)NCC(=O)NCC(=O)N[C@@H](C)C(=O)N[C@@H](CCCCN)C(=O)N[C@@H](CCC(N)=O)C(=O)N[C@@H](C)C(=O)NCC(=O)N[C@@H](CC(=O)O)C(=O)N[C@H](C(=O)O)C(C)C)[C@@H](C)CC)[C@@H](C)O)[C@@H](C)CC [D1 Peptide] (H-TRWYSMKKTTMKIIPFNRLTIGEGQQHHLGGAKQAGDV-OH)
- mode of inhibition of polymerization (batroxobin fibrin monomer 3.3×10^-8 M to 1.75×10^-7 M): competitive inhibitor
- concentration of fibrin monomer necessary to achieve the same rate of polymerization (apparent [FM]) (maximum rate 0.2 A350·min^-1, D1 Peptide 2.6×10^-7 M, 7.8×10^-8 M without peptide): 142 nM
